# Structures can show the parent of a compound that is named as a salt.
# Biological target: α1 adrenoceptor
# Test: displacement of ^3 H-prazosin specifically bound in rat brain homogenate (radioligand binding)
# Details: ^3 H Prazosin binding, Ki calculated from IC50, read-out: K1 (nM) ^3 H Prazosin
# Procedure: The compounds of the invention were tested […] for their ability to compete with labelled ligands of α1, α2 -adrenergic,and dopaminergic receptors. Said tests were made essentially following:
# (b) the method described by P. Greengrass et al., European Journal of Pharmacology, Vol. 55, pp. 323-326, (1979), which uses the specific displacement of ^3 H-prazosin specifically bound in rat brain homogenate, for the identification of substances interacting with the so called "α1 "adrenoceptor;
# The above mentioned methods are radioligand binding assays and are based on the knowledge that many natural or synthetic physiologically active substances such as neurotransmitters, hormones, and others, specifically link to cellular receptors, generally of proteic nature. They are generally obtained from a tissue or organ of a suitable test-animal after isolation and homogenization of said tissue or organ.
# The homogenate is twice centrifugated to separate and partially purify the receptorial fraction (synaptosomes).
# The labelled substances employed are known to specifically bind their receptors, so the drug-receptor dissociation constants obtained for each test compound under standard conditions are a measure of their actual binding affinities. The validation of the above methods in predicting a possible pharmacological activity was carried out comparing the in vitro binding constants of a number of […] agonist or antagonist of the adrenergic or dopaminergic system with their in vivo activities. The α1 -adrenergic activity is essentially correlated with a peripheral vasodilatation. The α2 -adrenergic activity is essentially correlated with a hypotensive action of central origin, and the dopaminergic activity is correlated with a neuroleptic action. IC50 values, defined as the drug concentration that cause 50% inhibition of the specific ^3 H ligant binding, are observed by incubating from 5 to 7 different dilutions of the tested compound in duplicate or triplicate. Ki, inhibition constant, values are calculated from the following formula: [formula] wherein IC50 is defined as above, C is the concentration of the ^3 H ligand, and KD is the dissociation constant of the ^3 H ligand-receptor complex.
row,SMILES,Ki
1,"Fc1ccc(-c2n[nH]c3c2CNCC3)cc1 [Example 19, 3-(4-fluorophenyl)-4,5,6,7-tetrahydro-1H-pyrazolo/4,3-c/pyridine]",69.2 nM
2,"Cc1ccc(-c2n[nH]c3c2CNCC3)cc1 [Example 32, 3-(4-methylphenyl)-4,5,6,7-tetrahydro-1H-pyrazolo/4,3-c/pyridine, dihydrochloride]",92.2 nM
3,"CC(C)n1nc(-c2ccc(F)cc2)c2c1CCNC2 [Example 95, 3-(4-fluorophenyl)-1-(2-methylethyl)-4,5,6,7-tetrahydro-1H-pyrazolo/4,3-c/pyridine, methanesulfonate]",32.2 nM
4,"Cn1nc(-c2ccccc2)c2c1CCNC2 [Example 96, 1-methyl-3-phenyl-4,5,6,7-tetrahydro-1H-pyrazolo/4,3-c/pyridine, methanesu lfonate]",52 nM
5,"Fc1ccc(-c2nn(Cc3ccc(Cl)cc3)c3c2CNCC3)cc1 [Example 103, 1-(4-chlorophenylmethyl)-3-(4-fluorophenyl)-4,5,6,7-tetrahydro-1H-pyrazolo/4,3-c/pyridine, hydrochloride]",11.1 nM
6,"COc1ccc(Cn2nc(-c3ccc(F)cc3)c3c2CCNC3)cc1 [Example 105, 3-(4-fluorophenyl)-1-(4-methoxyphenylmethyl)-4,5,6,7-tetrahydro-1H-pyrazolo/4,3-c/pyridine, hydrochloride]",6.23 nM
7,"Fc1ccc(-c2nn(Cc3ccc(Cl)c(Cl)c3)c3c2CNCC3)cc1 [Example 108, 1-(3,4-dichlorophenylmethyl)-3-(4-fluorophenyl)-4,5,6,7-tetrahydro-1H-pyrazolo/4,3-c/pyridine, hydrochloride]",7.48 nM
8,"Fc1ccc(-c2nn(CCc3ccccc3)c3c2CNCC3)cc1 [Example 110, 3-(4-fluorophenyl)-1-(2-phenylethyl)-4,5,6,7-tetrahydro-1H-pyrazolo/4,3-c/pyridine, methanesulfonate]",40.3 nM
9,"Fc1ccc(-c2nn(CCCc3ccccc3)c3c2CNCC3)cc1 [Example 111, 3-(4-fluorophenyl)-1-(3-phenylpropyl)-4,5,6,7-tetrahydro-1H-pyrazolo/4,3-c/pyridine, methanesulfonate]",12.9 nM
10,"CCCn1nc(-c2ccc(F)cc2)c2c1CCNC2 [Example 112, 3-(4-fluorophenyl)-1-n.propyl-4,5,6,7-tetrahydro-1H-pyrazolo/4,3-c/pyridine, methanesulfonate]",24.2 nM
11,"CCCCn1nc(-c2ccc(F)cc2)c2c1CCNC2 [Example 113, 3-(4-fluorophenyl)-1-n.butyl-4,5,6,7-tetrahydro-1H-pyrazolo/4,3-c/pyridine, methanesulfonate]",17.3 nM
12,"Fc1ccc(-c2nn(Cc3ccccc3Cl)c3c2CNCC3)cc1 [Example 114, 1-(2-chlorophenylmethyl)-3-(4-fluorophenyl)-4,5,6,7-tetrahydro-1H-pyrazolo/4,3-c/pyridine, methanesulfonate]",17.3 nM
13,"CC(c1ccccc1)n1nc(-c2ccc(F)cc2)c2c1CCNC2 (centres unmarked) [Example 116, 3-(4-fluorophenyl)-4,5,6,7-tetrahydro-1-(1-phenylethyl)-1H-pyrazolo/4,3-c/pyridine, methanesulfonate]",7.24 nM
14,"c1ccc(Cn2nc(-c3ccccc3)c3c2CCNC3)cc1 [Example 117, 4,5,6,7-tetrahydro-3-phenyl-1-phenylmethyl-1H-pyrazolo/4,3-c/pyridine, hydrochloride]",38.6 nM
15,"Clc1ccc(-c2nn(Cc3ccccc3)c3c2CNCC3)cc1 [Example 118, 3-(4-chlorophenyl)-4,5,6,7-tetrahydro-1-phenylmethyl)-1H-pyrazolo/4,3-c/pyridine, hydrochloride]",14.5 nM
16,"Cc1ccc(-c2nn(Cc3ccccc3)c3c2CNCC3)cc1 [Example 119, 4,5,6,7-tetrahydro-3-(4-methylphenyl)-1-phenylmethyl-1H-pyrazolo/4,3-c/pyridine, hydrochloride]",5.86 nM
17,"CCCCCn1nc(-c2ccc(F)cc2)c2c1CCNC2 [Example 122, 3-(4-fluorophenyl)-4,5,6,7-tetrahydro-1-n.pentyl-1H-pyrazolo/4,3-c/pyridine, methanesulfonate]",8.7 nM
18,"CCCCCCn1nc(-c2ccc(F)cc2)c2c1CCNC2 [Example 123, 3-(4-fluorophenyl)-4,5,6,7-tetrahydro-1-n.hexyl-1H-pyrazolo/4,3-c/pyridine, methanesulfonate]",13 nM
19,"CN1CCc2c(c(-c3ccc(F)cc3)nn2Cc2ccccc2)C1 [Example 128, 3-(4-fluorophenyl)-5-methyl-1-phenylmethyl-4,5,6,7-tetrahydro-1H-pyrazolo/4,3-c/pyridine, methanesulfonate]",21.2 nM
20,"CN1CCc2c(c(-c3ccc(F)cc3)nn2Cc2ccc(Cl)cc2)C1 [Example 132, 1-(4-chlorophenylmethyl)-3-(4-fluorophenyl)-5-methyl-4,5,6,7-tetrahydro-1H-pyrazolo/4,3-c/pyridine, methanesulfonate]",20.8 nM
21,"COc1ccc(Cn2nc(-c3ccc(F)cc3)c3c2CCN(C)C3)cc1 [Example 133, 3-(4-fluorophenyl)-1-(4-methoxyphenylmethyl)-5-methyl-4,5,6,7-tetrahydro-1H-pyrazolo/4,3-c/pyridine, hydrochloride]",12.4 nM
22,"CN1CCc2c(c(-c3ccc(F)cc3)nn2Cc2ccc(Cl)c(Cl)c2)C1 [Example 136, 1-(3,4-dichlorophenylmethyl)-3-(4-fluorophenyl)-5-methyl-4,5,6,7-tetrahydro-1H-pyrazolo/4,3-c/pyridine]",21.9 nM
23,"CN1CCc2c(c(-c3ccc(F)cc3)nn2CCc2ccccc2)C1 [Example 138, 3-(4-fluorophenyl)-1-(2-phenylethyl)-5-methyl-4,5,6,7-tetrahydro-1H-pyrazolo/4,3-c/pyridine]",40.3 nM
24,"CN1CCc2c(c(-c3ccc(F)cc3)nn2CCCc2ccccc2)C1 [Example 139, 3-(4-fluorophenyl)-1-(3-phenylpropyl)-5-methyl-4,5,6,7-tetrahydro-1H-pyrazolo/4,3-c/pyridine, hydrochloride]",20.6 nM
25,"CCCn1nc(-c2ccc(F)cc2)c2c1CCN(C)C2 [Example 140, 3-(4-fluorophenyl)-1-n.propyl-5-methyl-4,5,6,7-tetrahydro-1H-pyrazolo/4,3-c/pyridine, methanesulfonate]",73.5 nM
26,"CCCCn1nc(-c2ccc(F)cc2)c2c1CCN(C)C2 [Example 141, 3-(4-fluorophenyl)-1-n.butyl-5-methyl-4,5,6,7-tetrahydro-1H-pyrazolo/4,3-c/pyridine, methanesulfonate]",32.8 nM
27,"CN1CCc2c(c(-c3ccc(F)cc3)nn2Cc2ccccc2Cl)C1 [Example 142, 1-(2-chlorophenylmethyl)-3-(4-fluorophenyl)-5-methyl-4,5,6,7-tetrahydro-1H-pyrazolo/4,3-c/pyridine, methanesulfonate]",36.3 nM
28,"CC(c1ccccc1)n1nc(-c2ccc(F)cc2)c2c1CCN(C)C2 (centres unmarked) [Example 144, 3-(4-fluorophenyl)-4,5,6,7-tetrahydro-5-methyl-1-(1-phenylethyl)-1H-pyrazolo/4,3-c/pyridine, hydrochloride]",8.14 nM
29,"CN1CCc2c(c(-c3ccccc3)nn2Cc2ccccc2)C1 [Example 145, 4,5,6,7-tetrahydro-5-methyl-3-phenyl-1-phenylmethyl-1H-pyrazolo/4,3-c/pyridine, methanesulfonate]",49.4 nM
